The values below come from PubChem BioAssay (NCI).

Some test systems named below: HOP-18 NSCLC; RXF-631 renal; XF 498 CNS; P388/ADR leukemia; SN12K1 renal; P388 leukemia.
Experiment in all cases: NCI tumour cell line growth inhibition, 48 h

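Interpolation was linear, between the two tested concentrations surrounding the appropriate level; five concentrations were tested over 48 hours in 96-well plates. At the GI50, growth is halved. Definition used: TGI = concentration required for complete inhibition of growth.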

Take `COc1ccc2c[n+](C)c3c4cc(OC)c(OC)cc4ccc3c2c1`: the TGI with HOP-18 NSCLC was more than 96.1 µM; with RXF-631 renal, 46.9 µM; in the assay with XF 498 CNS, 22.1 µM.

With `COc1cc2c(oc(=O)c3cc4ccoc4c(OC)c32)c2cccc(O)c12`, the TGI with HOP-18 NSCLC and in the assay on XF 498 CNS was more than 100 µM each time.

For the compound `CC(C)C(Sc1nc(-c2ccccc2)c(-c2ccccc2)[nH]1)C(=O)N/N=C/c1ccc([N+](=O)[O-])cc1` (configuration not stated), in the assay with XF 498 CNS, the TGI was found to be 41 µM.

Compound `Cc1nc2c(n1CCC(C)C)C(=O)c1ccccc1C2=O` gave a TGI with XF 498 CNS of 36.4 µM.

For `CC(C)[Si](OCC1CC(C[C@H]2CC(C[C@H]3C[C@@H](CO[Si](C(C)C)(C(C)C)C(C)C)OC(C)(C)O3)OC(C)(C)O2)OC(C)(C)O1)(C(C)C)C(C)C` (some centres not stated), the TGI with HOP-18 NSCLC was more than 100 µM.

In turn, `NC(CCCNc1cccc(O)c1)C(=O)O` (configuration not stated) returned a TGI with HOP-18 NSCLC of more than 100 µM.

As for `CC(=O)[O-].[Ni].c1ccc(/C(=N\Nc2ccccn2)c2ccccn2)cc1`, in the assay with HOP-18 NSCLC, the GI50 is 2.81 µM and the TGI was more than 100 µM.

As to `O=C(O)C(Cc1cnc[nH]1)N=Cc1nc(-c2ccccc2)oc1O` (configuration not stated), the TGI with XF 498 CNS was more than 100 µM.

For `O=C1SC(c2ccccc2)(c2ccccc2)c2ccccc21`, the TGI in the assay with HOP-18 NSCLC and with XF 498 CNS was more than 100 µM in each case.

With `O=NNc1cnccn1`, the TGI in the assay on P388/ADR leukemia, with HOP-18 NSCLC, in the assay with SN12K1 renal and with P388 leukemia was more than 1250 µM throughout.

Take `O=c1[nH]cc(N(CCCl)CCCl)c(=O)[nH]1`: the TGI in the assay on P388/ADR leukemia came out at 70 µM; with HOP-18 NSCLC, 199 µM; in the assay with SN12K1 renal, 172 µM; in the assay on P388 leukemia, 66.7 µM; with XF 498 CNS, 89.7 µM.

Consider `Cc1ccc(NC(=O)C(=O)C2NC(=S)NC2=O)c([N+](=O)[O-])c1` (configuration not stated), for which the TGI in the assay on HOP-18 NSCLC and in the assay on XF 498 CNS was more than 100 µM in each case.

In the assay with RXF-631 renal, `Cc1ccc(S(=O)(=O)N/N=C/c2oc(-c3ccccc3Cl)c(-c3ccccc3Cl)c2[N+](=O)[O-])cc1` registered a TGI of 60.3 µM.

`C[N+](C)(C)Cc1c(CC#N)[nH]c2ccccc12`: the TGI in the assay on XF 498 CNS was more than 100 µM.

Turning to `O=c1[nH]c(=O)n(C2CC(O)C(CO)O2)cc1C#Cc1cc(C(F)(F)F)cc(C(F)(F)F)c1` (configuration not stated), the TGI with HOP-18 NSCLC was more than 100 µM; in the assay on RXF-631 renal, more than 100 µM; in the assay with XF 498 CNS, more than 86.6 µM.

As for `C=C(CN(C)C)C(=O)c1cc(C)ccc1C`, the TGI in the assay on HOP-18 NSCLC turned out to be 11.6 µM; in the assay with XF 498 CNS, 33 µM.
